From patent publication US12263172B2, “Toll-like receptor agonists for use in the treatment of hepatitis b” (priority 2019, dated 2025)

Assay: Phase 1 single-ascending dose (Part 1): safety and tolerability in healthy adults
Assay type: in vivo, human
Description: This ongoing trial is a Phase 1 randomized, double-blind, placebo-controlled study in male and female healthy adult volunteers aged 18-55 years. All volunteers provided written, informed consent.
All volunteers were followed up for 4 weeks and safety and tolerability were continuously assessed throughout the study. All adverse events (AEs) were recorded from the time of consent to the completion visit and were graded using the DAIDS toxicity grading scale. Volunteers also underwent physical examinations, electrocardiograms, vital sign checks and clinical laboratory parameters (chemistry, haematology, urinalysis).

CCCCOc1nc(N)c2[nH]cc(Cc3ccc(CN4CCCC4)cc3)c2n1 [Compound 4]
5 (83) n (%): Any AE (treatment-emergent) (single dose 1.8 mg fasted)
Two: subjects with grade 1 increase in temperature around 12 hours after dosing (single dose 1.8 mg)
2 (33.3%) n (%): subjects with Grade 2 treatment-related AEs (pyrexia, headache and hypertension) (single dose 1.8 mg) | lab toxicity: Lymphocytes (giga/L), downwards, Grade 4 (single dose 1.8 mg fasted) | lab toxicity: Platelets (giga/L), downwards, Grade 1 (single dose 1.8 mg fasted) | lab toxicity: Sodium (mmol/L), upwards, Grade 1 (single dose 1.8 mg fasted)
0 n (%): vital signs: Supine SBP (mmHg) Grade 1 (single dose 1.25 mg fed) | vital signs: Supine SBP (mmHg) Grade 2 (single dose 1.25 mg fed) | vital signs: Supine SBP (mmHg) Low (single dose 1.25 mg fed) | vital signs: Supine pulse (bpm) Low (single dose 1.25 mg fed) | ↑ AST Grade 3 (laboratory abnormality) (single dose 1.25 mg fed) | ↑ Amylase Grade 2 (laboratory abnormality) (single dose 1.25 mg fed) | ↑ Creatine kinase Grade 2 (laboratory abnormality) (single dose 1.25 mg fed) | ↑ Creatine kinase Grade 4 (laboratory abnormality) (single dose 1.25 mg fed) | ↑ Glucose Grade 2 (laboratory abnormality) (single dose 1.25 mg fed) | ↑ LDL cholesterol Grade 3 (laboratory abnormality) (single dose 1.25 mg fed) | ↑ Lipase Grade 2 (laboratory abnormality) (single dose 1.25 mg fed) | ↑ Pancreatic amylase Grade 2 (laboratory abnormality) (single dose 1.25 mg fed) | ↑ Potassium Grade 2 (laboratory abnormality) (single dose 1.25 mg fed) | ↑ Sodium Grade 2 (laboratory abnormality) (single dose 1.25 mg fed) | ↑ Triglycerides Grade 3 (laboratory abnormality) (single dose 1.25 mg fed) | ↓ Bicarbonate Grade 2 (laboratory abnormality) (single dose 1.25 mg fed) | ↓ GFR Grade 2 (laboratory abnormality) (single dose 1.25 mg fed) | ↓ Lymphocytes Grade 2 (laboratory abnormality) (single dose 1.25 mg fed) | ↓ Lymphocytes Grade 4 (laboratory abnormality) (single dose 1.25 mg fed) | ↓ Neutrophils Grade 2 (laboratory abnormality) (single dose 1.25 mg fed) | ECG actual value: Heart rate (bpm) Low (single dose 1.8 mg fasted) | ECG actual value: QRS (ms) High (single dose 1.8 mg fasted) | ECG actual value: QTcB (ms) ]450; 480] (single dose 1.8 mg fasted) | ECG actual value: QTcF (ms) ]450; 480] (single dose 1.8 mg fasted) | ECG change from reference: QTcF (ms) [30; 60] (single dose 1.8 mg fasted) | Headache Grade 1 (treatment-emergent AE) (single dose 1.8 mg fasted) | lab toxicity: Amylase (U/L), upwards, Grade 2 (single dose 1.8 mg fasted) | lab toxicity: Cholesterol (mmol/L), upwards, Grade 2 (single dose 1.8 mg fasted) | lab toxicity: Creatine kinase (U/L), upwards, Grade 1 (single dose 1.8 mg fasted) | lab toxicity: Creatine kinase (U/L), upwards, Grade 4 (single dose 1.8 mg fasted) | lab toxicity: Glucose (mmol/L), upwards, Grade 1 (single dose 1.8 mg fasted) | lab toxicity: Glucose (mmol/L), upwards, Grade 2 (single dose 1.8 mg fasted) | lab toxicity: LDL cholesterol (mmol/L, calculated), upwards, Grade 1 (single dose 1.8 mg fasted) | lab toxicity: LDL cholesterol (mmol/L, calculated), upwards, Grade 2 (single dose 1.8 mg fasted) | lab toxicity: LDL cholesterol (mmol/L, calculated), upwards, Grade 3 (single dose 1.8 mg fasted) | lab toxicity: Lymphocytes (giga/L), downwards, Grade 2 (single dose 1.8 mg fasted) | lab toxicity: Neutrophils, segmented (giga/L), downwards, Grade 1 (single dose 1.8 mg fasted) | lab toxicity: Triglycerides (mmol/L), upwards, Grade 2 (single dose 1.8 mg fasted)
1 (16.7%) n (%): ECG change from reference: QTcB (ms) [30; 60] (single dose 1.8 mg fasted) | lab toxicity: Amylase (U/L), upwards, Grade 1 (single dose 1.8 mg fasted) | lab toxicity: Cholesterol (mmol/L), upwards, Grade 1 (single dose 1.8 mg fasted) | lab toxicity: Creatine kinase (U/L), upwards, Grade 2 (single dose 1.8 mg fasted) | lab toxicity: Neutrophils, segmented (giga/L), downwards, Grade 2 (single dose 1.8 mg fasted) | lab toxicity: Sodium (mmol/L), upwards, Grade 2 (single dose 1.8 mg fasted)
3 (50) n (%): Contact dermatitis Grade 1 (treatment-emergent AE) (single dose 1.8 mg fasted)
1 (17) n (%): Headache Grade 2 (treatment-emergent AE) (single dose 1.8 mg fasted) | Hypertension Grade 1 (treatment-emergent AE) (single dose 1.8 mg fasted) | Hypertension Grade 2 (treatment-emergent AE) (single dose 1.8 mg fasted) | Myalgia Grade 1 (treatment-emergent AE) (single dose 1.8 mg fasted) | Oropharyngeal pain Grade 1 (treatment-emergent AE) (single dose 1.8 mg fasted) | Pyrexia Grade 1 (treatment-emergent AE) (single dose 1.8 mg fasted) | Pyrexia Grade 2 (treatment-emergent AE) (single dose 1.8 mg fasted) | URTI Grade 1 (treatment-emergent AE) (single dose 1.8 mg fasted)
3 (50.0%) n (%): subjects with contact dermatitis (AE) (single dose 1.8 mg)
2 (33) n (%): Back pain Grade 1 (treatment-emergent AE) (single dose 1.8 mg fasted) | Chills Grade 1 (treatment-emergent AE) (single dose 1.8 mg fasted) | Dizziness Grade 1 (treatment-emergent AE) (single dose 1.8 mg fasted)
1 (14) n (%): ↑ Cholesterol Grade 2 (laboratory abnormality) (single dose 1.25 mg fed) | ↑ LDL cholesterol Grade 2 (laboratory abnormality) (single dose 1.25 mg fed) | ↑ Triglycerides Grade 2 (laboratory abnormality) (single dose 1.25 mg fed) | ↓ Phosphate Grade 2 (laboratory abnormality) (single dose 1.25 mg fed)
5 (83.3%) n (%): lab toxicity: Triglycerides (mmol/L), upwards, Grade 1 (single dose 1.8 mg fasted)
